In ChEMBL document CHEMBL4808229, “Privileged scaffolds in medicinal chemistry: Studies on pyrazolo[1,5-a]pyrimidines on sulfonamide containing Carbonic Anhydrase inhibitors” (Bioorg Med Chem Lett, 2021):

These compounds were tested against Carbonic anhydrase 9 (Homo sapiens, UniProt Q16790) (assay: Inhibition of recombinant human carbonic anhydrase 9 by stopped-flow CO2 hydration assay).
For `CCOC(=O)c1cnc2c(NC(=S)NCc3ccc(S(N)(=O)=O)cc3)cnn2c1C`, the Ki was 23 nM.
With `CCOC(=O)c1cnc2c(NC(=O)c3ccc(Cl)c(S(N)(=O)=O)c3)cnn2c1C` the Ki was 6.5 nM.
`CCOC(=O)c1cnc2c(NC(=S)Nc3cccc(S(N)(=O)=O)c3)cnn2c1C` gave a Ki of 312 nM.
In the case of `Cc1c(C(=O)O)cnc2c(NC(=O)Nc3ccc(S(N)(=O)=O)cc3)cnn12`, the Ki is reported as 851 nM.
Compound `Cc1c(C(=O)O)cnc2c(NC(=O)NCc3ccc(S(N)(=O)=O)cc3)cnn12` has a Ki of 703 nM.
Compound `CCOC(=O)c1cnc2c(NC(=O)NCc3ccc(S(N)(=O)=O)cc3)cnn2c1C` has a Ki of 9.7 nM.
For `CCOC(=O)c1cnc2c(NC(=S)NCCc3ccc(S(N)(=O)=O)cc3)cnn2c1C`, the Ki was 919 nM.
`CCOC(=O)c1cnc2c(NC(=S)Nc3ccc(S(N)(=O)=O)cc3)cnn2c1C` gave a Ki of 680 nM.
`Cc1c(C(=O)O)cnc2c(NC(=O)c3ccc(S(N)(=O)=O)cc3)cnn12` showed a Ki of 142 nM.
`CCOC(=O)c1cnc2c(NC(=O)NCCc3ccc(S(N)(=O)=O)cc3)cnn2c1C` gave a Ki of 975 nM.
`Cc1c(C(=O)O)cnc2c(NC(=O)Nc3cccc(S(N)(=O)=O)c3)cnn12` showed a Ki of 523 nM.
Work on `Cc1c(C(=O)O)cnc2c(NC(=O)NCCc3ccc(S(N)(=O)=O)cc3)cnn12` yielded a Ki of 212 nM.
`CCOC(=O)c1cnc2c(NC(=O)c3ccc(S(N)(=O)=O)cc3)cnn2c1C` gave a Ki of 142 nM.
`CCOC(=O)c1cnc2c(NC(=O)N/C=C/c3ccc(S(N)(=O)=O)cc3)cnn2c1C` was tested, and the Ki was 843 nM.
